# Active and inactive are the calls of the source.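 Rule for the calls: active = fitted curve crossing a set activation limit at or below the highest valid dose tested; inconclusive = flat fit at 30 to 70% activation, or poor fit; inactive = the rest, including signal decreases.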
# System: D54 ERlucT glycosylation luciferase reporter, luminescence, 24 h
# Assay: N-linked glycosylation inhibitors, luciferase reporter, dose response, D54 ERlucT cells, luminescence, cherry-picks (AID 624491);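 note: signal gain reflects blocked N-linked glycosylation of a luciferase reporter; actives raise luciferase signal so AC26 marks activators of the reporter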
row,SMILES,AC26
1,COc1cc2c(C#CCCO)c(-c3ccsc3)oc(=O)c2cc1OC,226 nM
2,Cc1cc2oc(C(=O)Nc3c(C)n(C)n(-c4ccccc4)c3=O)c(C)c2cc1Cl,781 nM
3,COc1cc(/C=C/C(=O)/C=C(O)/C=C/c2ccc(O)c(OC)c2)ccc1O,2090 nM
4,CN(C)CCN1C(=O)c2cccc3cc([N+](=O)[O-])cc(c23)C1=O,73.5 nM
5,CCN(CC)S(=O)(=O)c1cccc(C(=O)N/N=C/c2ccc([N+](=O)[O-])o2)c1,2340 nM
6,COc1ccccc1C(=O)Nc1ccc2c(c1)nc(CCNC(=O)c1ccco1)n2C,1550 nM
7,Cc1cc(NC(=O)NC(=O)c2ccccc2NC(=O)CN)ccc1Oc1ncc(Br)cn1,11000 nM
8,COc1cc2ccccc2cc1C(=O)N/N=C/c1cccs1,232 nM
9,COc1cc2c(cc1OC)CN(c1ccc(C(F)(F)F)cn1)CC2,4710 nM
10,CCNCCNc1ccc([N+](=O)[O-])c2cccnc12,7750 nM
11,COc1ccc2nc(C)cc(Nc3ccc(N4CCOCC4)cc3)c2c1,1260 nM
12,Cc1ccc2nc(-c3ccccc3)cc(C(=O)N3CC(C)OC(C)C3)c2c1 (configuration not stated),2450 nM
13,CC1(C(=O)NCc2ccco2)Cc2c(-c3ccc(C(N)=O)cc3)ccnc2O1 (configuration not stated),1390 nM
14,COc1ccc(NC(=O)C2Cc3c(-c4cccc(NC(C)=O)c4)ccnc3O2)cn1 (configuration not stated),2590 nM
15,CCNc1nc(NC(C)(C)C)nc(SC(C(C)=O)C(C)=O)n1,208 nM
16,CCCCCCn1c(=O)n2n(c1=O)[C@@H]1CN(S(=O)(=O)c3ccc(C)cc3)C[C@]1(O)[C@@H](OC(=O)NCc1ccccc1)C2,763 nM
17,COc1ccc(/C=N/NC(=O)c2cccc(NC(=O)c3ccccc3Cl)c2)cc1,5130 nM
18,CCN1CCN(c2ccc([N+](=O)[O-])cc2C(=O)c2ccc(Cl)cc2)CC1,11200 nM
19,COC(=O)[C@@H]1C[C@H]1[C@@H](NP(=O)(c1ccccc1)c1ccccc1)c1ccccc1,3650 nM
20,CCOC(=O)N1CCN(C(=O)c2cc(-c3ccncc3)nc3ccccc23)CC1,1410 nM
21,CC[C@H](C)C(=O)O[C@H]1C[C@@H](C)C=C2C=C[C@H](C)[C@H](CC[C@@H]3C[C@@H](O)CC(=O)O3)[C@H]21,301 nM
22,COc1cccc(C(NC(C)=O)c2nc(-c3ccc(F)cc3OC)cs2)c1 (configuration not stated),105 nM

row,SMILES,AC26
1,Cc1ccc(NC(=O)c2ncn(CCCNCc3ccccc3)n2)cc1C,800 nM
2,Cc1ccc2c(CC(=O)NCc3ccco3)coc2c1C,7380 nM
3,COc1cc(-c2cc3nc(NCCc4ccncc4)ccn3n2)cc(OC)c1OC,798 nM
4,CSc1nnc(-c2sccc2OCc2ccccc2)n1C,1950 nM
5,CCN(CC)S(=O)(=O)c1cccc(NC(=O)CN2C(=O)NC3(CCC(C)CC3)C2=O)c1 (configuration not stated),876 nM
6,O=C(c1[nH]c(C(F)(F)F)nc1-c1ccccc1)N1CCN(c2cccc(C(F)(F)F)n2)CC1,9230 nM
7,COc1ccc(C2C3=C(COC3=O)Oc3cc4c(cc32)OCO4)cc1OC (configuration not stated),1780 nM
8,COc1ccc(-c2[nH]nc(-c3ccccc3)c2-c2nc3ccccc3[nH]2)cc1,3900 nM
9,Cc1ccc(COc2ccccc2-c2cc(C(=O)N/N=C/c3cccnc3)[nH]n2)cc1,5260 nM
10,COc1ccc2c(c1)OC[C@H]1[C@H]2N2C(=O)c3ccc(C)cc3NC(=O)[C@@]2(C)[C@H]1c1ccccc1,926 nM
11,O=C(N/N=C\c1ccc(CNS(=O)(=O)c2ccc(Cl)cc2)o1)C(=O)Nc1ccc(Oc2ccccc2)cc1,4890 nM
12,Nc1ncnc(Sc2ccc(Cl)cc2)c1[N+](=O)[O-],13400 nM
13,Cc1ccc(-n2nc(C)c(NC(=O)CCl)c2C)cc1,2210 nM
14,CCOC(=O)N1CCC(NC(=O)c2ccc3c(c2)N=C(C)c2c(C)ccc(C)c2S3)CC1,441 nM
15,O=C1CCCC2=C1C1(CCCCC1)N=C(Nc1nc3ccccc3o1)N2,5790 nM
16,Cc1ccc2[nH]c(=O)c3cc(C(=O)NC(C)C)sc3c2c1,3990 nM
17,Cc1ccc(S(=O)(=O)C(NC(=O)c2ccccc2)=C(Cl)Cl)cc1,4090 nM
18,CC1CN(C(=O)c2ccc(COc3ccc(C(C)C)cc3)o2)CC(C)O1 (configuration not stated),3780 nM
19,Cc1cccc(N2CCN(C(=O)c3ccncc3)CC2)c1C,11400 nM
20,COc1ccc2nc3c(cc2c1)c(NC(=O)CC(C)C)nn3CC(C)C,8100 nM
21,O=S(=O)(Cc1ccc(Cl)cc1Cl)c1ccc(Cl)cc1,234 nM
22,CCCCNC(=O)c1cc(-c2ccc(F)cc2)on1,3450 nM

row,SMILES,AC26
1,COc1cc(/C=C/c2onc(C)c2[N+](=O)[O-])cc(OC)c1OC,864 nM
2,COc1ccc(C2=NOC(C(=O)NCc3ccc(F)cc3)C2)cc1OC (configuration not stated),4460 nM
3,COc1ccc(NC(=O)C2(C)Cc3c(-c4cccc(C(N)=O)c4)ccnc3O2)cn1 (configuration not stated),10700 nM
4,COc1cccc(/C=C2\SC(=S)N(CCC(=O)N3CCCCC3)C2=O)c1,5770 nM
5,CC(=O)Nc1ccc2cc3ccc(NC(C)=O)cc3nc2c1,5210 nM
6,CCNC(=O)c1cc2c(=O)n3cccc(C)c3nc2n(CCc2ccccc2)c1=N,1520 nM
7,Cn1nc(-c2ccc(N3CCOCC3)c(NS(=O)(=O)c3ccccc3)c2)c2ccccc2c1=O,6110 nM
8,C=CCN(CC=C)S(=O)(=O)c1ccc(C(=O)Nc2nc3c(s2)CCc2ccccc2-3)cc1,6790 nM
9,O=C(C=Cc1ccccc1F)c1ccccc1,3230 nM
10,CN(C)S(=O)(=O)c1ccc(N2CCCC2)c(C(=O)Nc2nccs2)c1,549 nM
11,Cc1[nH][nH]c(=O)c1C(c1ccc(-c2ccc(F)cc2)o1)c1c(C)[nH][nH]c1=O,4090 nM
12,Cc1ccc(S(=O)(=O)N(C)C[C@@H]2Oc3ccc(NC(=O)CCC(F)(F)F)cc3CC(=O)N([C@@H](C)CO)C[C@@H]2C)cc1,1470 nM
13,O=C(c1ccccc1-c1ccccc1)N1CCN(c2ccccn2)CC1,2340 nM
14,CCc1cc2c(=O)n(Cc3ccco3)c(SCc3c(C)noc3C)nc2s1,249 nM
15,Cc1ccccc1OCC(O)CN1CCN(CCN2C(=O)c3cccc4cccc(c34)C2=O)CC1 (configuration not stated),13500 nM
16,Cc1ccc(/C=N/NC(=O)c2sccc2OCc2ccc(F)cc2)cc1,2440 nM
17,CC(=O)c1cccc(-c2ccnc3c2CC(C(=O)NCC2CCOCC2)O3)c1 (configuration not stated),2070 nM
18,Cc1nc2c3cc(F)ccc3n(Cc3ccc(F)cc3)c2s1,11500 nM
19,CC1(C(=O)NCc2ccc(F)c(F)c2)Cc2c(-c3ccc4c(c3)OCO4)ccnc2O1 (configuration not stated),6730 nM
20,c1ccc(N=Nc2ccc3cccccc2-3)cc1,2060 nM
21,Cc1ccc(C2=NN(C(=O)CSc3nccn3C)C(c3ccco3)C2)cc1 (configuration not stated),6070 nM
22,COc1ccc(Cl)cc1S(=O)(=O)Nc1ccc2c(c1)n(C)c(=O)n2C,1470 nM

row,SMILES,AC26
1,COc1ccc(CNCC(=O)Nc2ccccc2-n2cccc2)cc1,922 nM
2,O=C(N/N=C/c1cccc(C(F)(F)F)c1)C1CCN(c2ncc(C(F)(F)F)cc2Cl)CC1,5890 nM
3,COc1ccc2sc3cccc(NCCN(C)C)c3c(=O)c2c1,4530 nM
4,O=C1Cc2c([nH]c3ccc([N+](=O)[O-])cc23)-c2ccccc2N1,318 nM
5,COc1ccccc1NS(=O)(=O)c1ccc(-c2cc(C)no2)s1,5830 nM
6,Cc1ccc(C(=O)Nc2ccc(NC(=O)c3cccs3)cc2)c(C)c1,8550 nM
7,COC(=O)C1=C(c2cc3ccccc3s2)C[C@@H]2CC[C@H]1N2C(=O)N1CCOCC1,13600 nM
8,Cc1cc2nnc(SCC(=O)NCc3ccco3)n2c2ccccc12,1360 nM
9,COc1cc(OC)cc(C(=O)NCC(=O)Nc2ccc(-c3ccccc3)cc2)c1,8830 nM
10,COc1cc(/C=C2/CCC/C(=C\c3cc(O)c(OC)c(Cl)c3)C2=O)cc(Cl)c1O,2230 nM
11,Cc1ccc(-c2cc(C(=O)NCC(c3ccccc3)N(C)C)c3ccccc3n2)o1 (configuration not stated),11400 nM
12,C[C@@]12C(=O)Nc3cc(F)ccc3C(=O)N1[C@H]1c3ccccc3OC[C@@H]1[C@@H]2c1ccccc1,1870 nM
13,Cc1ccc(OC(=O)CCC(=O)Oc2ccc(C)cc2C)c(C)c1,> 19500 nM (inactive)
14,COc1cc(OC)cc(C(=O)N2CC(=O)Nc3ccccc32)c1,565 nM
15,COc1cc(C(=O)N/N=C/c2ccccn2)cc(OC)c1OC,1160 nM
16,CC(C)CCNC(=O)CCCOc1cc(=O)n(C)c2ccccc12,4270 nM
17,COc1ccc(C2=Nn3c(nnc3-c3ccccc3F)SC2)cc1OC1CCOC1 (configuration not stated),4730 nM
18,CN(C)CCCN1C(=O)c2cccc3cccc(c23)C1=O,3880 nM
19,Cc1ccccc1OCCOC(=O)c1c(-c2ccccc2)noc1C,8510 nM
20,CC(=O)OC12COC1CC(O)C1(C)C(=O)C(O)C3=C(C)C(O)CC(O)(C(OC(=O)c4ccccc4)C21)C3(C)C (configuration not stated),1120 nM
21,Cc1onc(C(=O)Nc2cccc(C(F)(F)F)c2)c1[N+](=O)[O-],2720 nM
22,Cc1[nH]nc2c1C(c1ccc(-c3ccc(Cl)cc3)o1)C(C#N)=C(N)O2 (configuration not stated),1140 nM

row,SMILES,AC26
1,Cc1cc(NC(=O)CSc2nc3sc(C)c(C)c3c(=O)n2C2CCCC2)no1,4700 nM
2,C/C(=N\NC(=O)c1c(Cl)c(C)nn1C)c1ccc(NC(=O)C2CCC2)cc1,3.55 nM
3,Cc1ccc(N2C(=O)Nc3ccccc3C2(O)C(=O)N2CCN(c3ccccn3)CC2)cc1C (configuration not stated),330 nM
4,COc1ccc(CCn2c(O)c(C=NCc3ccc4c(c3)OCO4)c(=O)[nH]c2=O)cc1OC,3430 nM
5,COc1ccc(CCn2c(=N)c(C(=O)NCc3ccco3)cc3c(=O)n4ccccc4nc32)cc1,2810 nM
6,Cc1ccc(-n2c(SCC(=O)NCCC3=CCCCC3)nc3n[nH]c(C)c3c2=N)cc1Cl,6130 nM
7,Cc1ccnc2nc(C(=O)Nc3cc(Cl)ccc3N3CCOCC3)nn12,659 nM
8,CCOC(=O)/C(=C/c1c(C)n(C)c2ccc([N+](=O)[O-])cc12)C(C)=O,4230 nM
9,COc1ccc2[nH]c3c(N4CCC(O)(c5cccc(C(F)(F)F)c5)CC4)ncnc3c2c1,2740 nM
10,CCOC(=O)N/N=C/c1ccc(N(CC)CC)cc1O,2990 nM
11,CC(NC(=O)c1cccc2ccccc12)c1ccc2c(c1)CCCC2 (configuration not stated),6480 nM
12,c1ccc2c(c1)C1=NCCN1c1ccccc1-2,544 nM
13,COc1cc(C(=O)N/N=C/c2cc([N+](=O)[O-])cs2)cc(OC)c1OC,349 nM
14,CC(=O)c1cccc(Nc2c3c(nc4ccccc24)CCC3)c1,819 nM
15,CCOc1ccc(Cl)cc1C1=CC(=O)C[C@H](c2ccc(OC)cc2)C1,472 nM
16,COc1cccc(C2=CC(c3cccs3)n3nnnc3N2)c1 (configuration not stated),700 nM
17,COc1cccc(C(=O)Nc2sc3c(c2C#N)CCN(C(C)=O)C3)c1,9.19 nM
18,O=C1NC(=O)N(c2ccccc2)C(=O)/C1=C\C=C\c1ccccc1,679 nM
19,CCn1c2ccccc2c2cc(NC(=O)COC(=O)C3CCC(=O)N3)ccc21 (configuration not stated),3400 nM

# From PubChem BioAssay AID624491 (Broad Institute, 2012)
